Series [1] deals with T1, VLA-4 (α4β1 integrin) (Homo sapiens, UniProt P05556+P13612).
T1 construct: Ramos cells bearing cell-surface VLA-4; endogenous in cells; host or cells: Ramos cells
The series can be described thus: VLA-4/VCAM-1 Screening Assay (solid-phase dual antibody ELISA). The note with it: Ramos cell-derived VLA-4 binding to immobilized recombinant human VCAM-1. How it is done:
VLA-4/VCAM-1 Screening Assay
VLA-4 antagonist activity, defined as ability to compete for binding to immobilized VCAM-1, was quantitated using a solid-phase, dual antibody ELISA. VLA-4 (α4β1 integrin) bound to VCAM-1 was detected by a complex of anti-integrin β1 antibody: HRP-conjugated anti-mouse IgG: chromogenic substrate (K-Blue). Initially, this entailed coating 96 well plates (Nunc Maxisorp) with recombinant human VCAM-1 (0.4 μg in 100 μl PBS), sealing each plate and then allowing the plates to stand at 4° C. for ˜18 hr. […] On the day of assay, all plates were washed twice with VCAM Assay Buffer (200 μl/well of 50 mM Tris-HCl, 100 mM NaCl, 1 mM MnCl2, 0.05% Tween 20; pH 7.4). Test compounds were dissolved in 100% DMSO and then diluted 1:20 in VCAM Assay Buffer supplemented with 1 mg/mL BSA (i.e., final DMSO=5%). A series of 1:4 dilutions were performed to achieve a concentration range of 0.005 nM-1.563 μM for each test compound. 100 μl per well of each dilution was added to the VCAM-coated plates, followed by 10 μl of Ramos cell-derived VLA-4. These plates were sequentially mixed on a platform shaker for 1 min, incubated for 2 hr at 37° C., and then washed four times with 200 μl/well VCAM Assay Buffer. 100 μl of mouse anti-human integrin β1 antibody was added to each well (0.6 μg/mL in VCAM Assay Buffer+1 mg/mL BSA) and allowed to incubate for 1 hr at 37° C. At the conclusion of this incubation period, all plates were washed four times with VCAM Assay Buffer (200 μl/well). A corresponding second antibody, HRP-conjugated goat anti-mouse IgG (100 μl per well @ 1:800 dilution in VCAM Assay Buffer+1 mg/mL BSA), was then added to each well, followed by a 1 hr incubation at room temperature and concluded by three washes (200 μl/well) with VCAM Assay Buffer. Color development was initiated by addition of 100 μl K-Blue per well (15 min incubation, room temp) and terminated by addition of 100 μl Red Stop Buffer per well. All plates were then read in a UV/Vis spectrophotometer at […]. Results were calculated as % inhibition of total binding (i.e., VLA-4+VCAM-1 in the absence of test compound). The results are provided in the following Table I (A=IC50<1 nM, B=IC50<10 nM): […]

The target in series [2] is T1, VLA-4 (α4β1 integrin). The series can be described thus: Ramos (VLA-4)/VCAM-1 Cell-Based Screening Assay (cell adhesion). The note with it: Calcein-AM labeled Ramos cells adhering to immobilized recombinant human VCAM-1. How it is done: Ramos (VLA-4)/VCAM-1 Cell-Based Screening Assay Protocol
Soluble recombinant human VCAM-1 (mixture of 5- and 7-Ig domain) was purified from CHO cell culture media by inmmunoaffinity chromatography and maintained in a solution containing 0.1 M Tris-glycine (pH 7.5), 0.1 M NaCl, 5 mM EDTA, 1 mM PMSF, […] NaN3 and 10 μg/mL leupeptin. Calcein-AM was purchased from Molecular Probes Inc.
VLA-4 (α4β1 integrin) antagonist activity, defined as ability to compete with cell-surface VLA-4 for binding to immobilized VCAM-1, was quantitated using a Ramos-VCAM-1 cell adhesion assay. Ramos cells bearing cell-surface VLA-4, were labeled with a fluorescent dye (Calcein-AM) and allowed to bind VCAM-1 in the presence or absence of test compounds. A reduction in fluorescence intensity associated with adherent cells (% inhibition) reflected competitive inhibition of VLA-4 mediated cell adhesion by the test compound.
Initially, this entailed coating 96 well plates (Nunc Maxisorp) with recombinant human VCAM-1 (100 ng in 100 μl PBS), sealing each plate and allowing the plates to stand at 4° C. for ≈18 hr. The VCAM-coated plates were subsequently washed twice with 0.05% Tween-20 in PBS, and then blocked for 1 hr (room temperature) with 200 μl of Blocking Buffer (1% BSA/0.02% thimerosal) to reduce non-specific binding. Following the incubation with Blocking Buffer, plates were inverted, blotted and the remaining buffer aspirated. Each plate was then washed with 300 μl PBS, inverted and the remaining PBS aspirated.
Test compounds were dissolved in 100% DMSO and then diluted 1:25 in VCAM Cell Adhesion Assay Buffer (4 mM CaCl2, 4 mM MgCl2 in 50 mM TRIS-HCl, pH 7.5) (final DMSO=4%). A series of eight 1:4 dilutions were performed for each compound (general concentration range of 1 nM-12,500 nM). 100 μl/well of each dilution was added to the VCAM-coated plates, followed by 100 μl of Ramos cells (200,000 cells/well in 1% BSA/PBS). Plates containing test compounds and Ramos cells were allowed to incubate for 45 min at room temperature, after which 165 μl/well PBS was added. Plates were inverted to remove non-adherent cells, blotted and 300 μl/well PBS added. Plates were again inverted, blotted and the remaining buffer gently aspirated. 100 μl Lysis Buffer (0.1% SDS in 50 mM TRIS-HCl, pH 8.5) was added to each well and agitated for 2 min on a rotary shaking platform. The plates were then read for fluorescence intensity on a Cytofluor 2300 (Millipore) fluorecence measurement system (excitation=485 nm, emission=530 nm). The results are shown in the following Table II, where (A=IC50<100 nM, B=IC50<10000 nM): […]

SMILES strings stand for the structures. Where only a bound is given, the exact number is not on record here.

T1 sequence (P13612 34-1032): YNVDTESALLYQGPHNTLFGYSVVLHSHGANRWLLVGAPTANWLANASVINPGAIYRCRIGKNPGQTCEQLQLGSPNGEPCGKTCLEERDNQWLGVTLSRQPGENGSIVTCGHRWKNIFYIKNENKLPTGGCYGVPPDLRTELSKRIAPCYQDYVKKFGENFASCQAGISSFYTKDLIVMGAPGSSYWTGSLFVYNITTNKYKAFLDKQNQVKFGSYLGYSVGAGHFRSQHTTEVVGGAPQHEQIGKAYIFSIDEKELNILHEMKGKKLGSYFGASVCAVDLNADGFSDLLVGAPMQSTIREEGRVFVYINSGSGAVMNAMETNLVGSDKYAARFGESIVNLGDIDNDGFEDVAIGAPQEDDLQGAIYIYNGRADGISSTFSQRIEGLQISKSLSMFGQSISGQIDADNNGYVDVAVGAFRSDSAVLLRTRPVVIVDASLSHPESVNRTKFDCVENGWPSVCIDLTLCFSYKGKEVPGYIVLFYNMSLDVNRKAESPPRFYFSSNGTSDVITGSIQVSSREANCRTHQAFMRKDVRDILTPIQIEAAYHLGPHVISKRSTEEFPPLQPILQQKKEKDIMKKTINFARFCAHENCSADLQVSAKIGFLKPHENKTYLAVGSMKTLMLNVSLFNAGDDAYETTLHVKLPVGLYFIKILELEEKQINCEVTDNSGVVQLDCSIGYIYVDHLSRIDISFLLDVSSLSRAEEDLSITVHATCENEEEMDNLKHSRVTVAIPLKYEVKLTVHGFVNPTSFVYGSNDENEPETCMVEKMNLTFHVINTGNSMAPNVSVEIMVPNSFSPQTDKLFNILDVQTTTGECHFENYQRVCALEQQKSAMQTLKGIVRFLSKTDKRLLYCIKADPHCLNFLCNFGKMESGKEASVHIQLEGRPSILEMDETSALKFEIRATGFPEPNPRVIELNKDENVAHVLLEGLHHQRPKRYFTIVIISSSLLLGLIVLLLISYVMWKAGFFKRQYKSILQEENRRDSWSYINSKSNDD
T1 sequence (P05556 21-798): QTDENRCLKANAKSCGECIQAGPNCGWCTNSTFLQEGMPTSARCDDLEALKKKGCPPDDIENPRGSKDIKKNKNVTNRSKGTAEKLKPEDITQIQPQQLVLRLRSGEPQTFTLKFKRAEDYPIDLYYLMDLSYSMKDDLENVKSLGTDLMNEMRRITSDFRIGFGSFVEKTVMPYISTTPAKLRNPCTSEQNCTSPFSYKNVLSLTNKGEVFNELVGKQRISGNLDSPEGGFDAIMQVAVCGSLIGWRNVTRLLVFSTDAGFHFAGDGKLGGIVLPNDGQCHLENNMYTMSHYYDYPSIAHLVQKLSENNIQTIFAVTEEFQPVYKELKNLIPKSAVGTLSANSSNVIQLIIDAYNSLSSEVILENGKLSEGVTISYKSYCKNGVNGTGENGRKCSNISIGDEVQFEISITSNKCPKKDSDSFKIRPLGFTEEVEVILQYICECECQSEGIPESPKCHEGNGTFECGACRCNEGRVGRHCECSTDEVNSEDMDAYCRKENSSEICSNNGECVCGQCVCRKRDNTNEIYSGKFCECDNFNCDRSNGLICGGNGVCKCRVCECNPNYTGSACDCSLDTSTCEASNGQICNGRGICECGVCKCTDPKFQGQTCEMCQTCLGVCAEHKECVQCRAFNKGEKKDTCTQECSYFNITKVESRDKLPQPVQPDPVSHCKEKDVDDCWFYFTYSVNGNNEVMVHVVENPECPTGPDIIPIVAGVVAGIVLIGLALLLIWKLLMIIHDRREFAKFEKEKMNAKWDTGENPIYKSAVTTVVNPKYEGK

On to `Cc1cccc(Cl)c1C(=O)N[C@@H](Cc1ccc(-c2cn(C)c(=O)n(C)c2=O)cc1)C(=O)O` [Example 2, N-[(2-chloro-6-methylphenyl)carbonyl]-4-(1,3-dimethyl-2,4-dioxo-5-pyrimidinyl)-L-phenylalanine], for which the melting point lay within 234 to 236 °C. The IC50 at VLA-4 (α4β1 integrin) [1] was less than 0.001 µM. Besides, the IC50 at VLA-4 (α4β1 integrin) [2] is less than 0.1 µM.
Take `COCCC1(C(=O)N[C@@H](Cc2ccc(-c3cn(C)c(=O)n(C)c3=O)cc2)C(=O)O)CCCC1` [Example 3, 4-[(1,3-dimethyl-2,4-dioxo-5-pyrimidinyl)]-N-[[1-(2-methoxyethyl)cyclopentyl]carbonyl]-L-phenylalanine]: the IC50 at VLA-4 (α4β1 integrin) [1] was less than 0.01 µM; at VLA-4 (α4β1 integrin) [2], less than 0.1 µM.
In the case of `Cc1cccc(Br)c1C(=O)N[C@@H](Cc1ccc(-c2cn(C)c(=O)n(C)c2=O)cc1)C(=O)O` [Example 4, N-[(2-bromo-6-methylphenyl)carbonyl]-4-(1,3-dimethyl-2,4-dioxo-5-pyrimidinyl)-L-phenylalanine], the IC50 at VLA-4 (α4β1 integrin) [1] was less than 0.001 µM; on VLA-4 (α4β1 integrin) [2], less than 0.1 µM.
As for `COc1ccc(Br)c(C(=O)N[C@@H](Cc2ccc(-c3cn(C)c(=O)n(C)c3=O)cc2)C(=O)O)c1` [Example 5, N-[(2-bromo-5-methoxyphenyl)carbonyl]-4-[1,3-dimethyl-2,4-dioxo-5-pyrimidinyl]-L-phenylalanine], the IC50 at VLA-4 (α4β1 integrin) [1] was less than 0.001 µM; at VLA-4 (α4β1 integrin) [2], less than 10 µM.
As to `Cc1c(-c2ccc(C[C@H](NC(=O)c3c(Cl)cccc3C(C)C)C(=O)O)cc2)c(=O)n(C)c(=O)n1C` [Example 17, N-[[2-chloro-6-(2-methylethyl)phenyl]carbonyl]-4-(1,3,6-trimethyl-2,4-dioxo-5-pyrimidinyl)-L-phenylalanine], the melting point lay in the range of 205 to 209 °C.
`CCN(CC)CCOC(=O)[C@H](Cc1ccc(-c2c(C)n(C)c(=O)n(C)c2=O)cc1)NC(=O)c1c(Cl)cccc1Cl` [Example 28, N-[(2,6-dichlorophenyl)carbonyl]-4-(1,3,6-trimethyl-2,4-dioxo-5-pyrimidinyl)-L-phenylalanine 2-[(N,N-diethyl)amino]ethyl ester]: the IC50 on VLA-4 (α4β1 integrin) [2] was less than 0.1 µM.
Consider `CCN(CC)CCOC(=O)[C@H](Cc1ccc(-c2c(C)n(C)c(=O)n(C)c2=O)cc1)NC(=O)c1c(C)cccc1Cl` [Example 29, N-[(2-chloro-6-methylphenyl)carbonyl]-4-(1,3,6-trimethyl-2,4-dioxo-5-pyrimidinyl)-L-phenylalanine 2-[(N,N-diethyl)amino]ethyl ester], for which the concentration for half-maximal inhibition (IC50) at VLA-4 (α4β1 integrin) [2] was less than 0.1 µM.
The same measure, in the same setting: then `CCOC(=O)[C@H](Cc1ccc(-c2c(C)n(C)c(=O)n(C)c2=O)cc1)NC(=O)c1c(C)cccc1Cl` [Example 30, N-[(2-chloro-6-methylphenyl)carbonyl]-4-(1,3,6-trimethyl-2,4-dioxo-5-pyrimidinyl)-L-phenylalanine ethyl ester], with less than 10 µM.
`Cc1c(-c2ccc(C[C@H](NC(=O)c3c(Cl)cccc3Cl)C(=O)OCCN3CCOCC3)cc2)c(=O)n(C)c(=O)n1C` [Example 31, N-[(2,6-dichlorophenyl)carbonyl]-4-(1,3,6-trimethyl-2,4-dioxo-5-pyrimidinyl)-L-phenylalanine 2-(4-morpholino)ethyl ester]: the melting point lay within 90 to 94 °C. The IC50 at VLA-4 (α4β1 integrin) [2] is less than 10 µM.
With `Cc1cccc(Cl)c1C(=O)N[C@@H](Cc1ccc(-c2c(C)n(C)c(=O)n(C)c2=O)cc1)C(=O)OCCN1CCOCC1` [Example 32, N-[(2-chloro-6-methylphenyl)carbonyl]-4-(1,3,6-trimethyl-2,4-dioxo-5-pyrimidinyl)-L-phenylalanine 2-(4-morpholino)ethyl ester], the IC50 on VLA-4 (α4β1 integrin) [2] is less than 10 µM.
With `CC(=O)OC(C)OC(=O)[C@H](Cc1ccc(-c2c(C)n(C)c(=O)n(C)c2=O)cc1)NC(=O)c1c(Cl)cccc1Cl` (stereo partly drawn) [Example 33, N-[(2,6-dichlorophenyl)carbonyl]-4-(1,3,6-trimethyl-2,4-dioxo-5-pyrimidinyl)-L-phenylalanine 1-(acetoxy)ethyl ester], the melting point is 168 to 170 °C. Also, the IC50 at VLA-4 (α4β1 integrin) [2] is less than 10 µM.
In the same order, the values of `CC(=O)OC(C)OC(=O)[C@H](Cc1ccc(-c2c(C)n(C)c(=O)n(C)c2=O)cc1)NC(=O)c1c(C)cccc1Cl` (stereo partly drawn) [Example 34, N-[(2-chloro-6-methylphenyl)carbonyl]-4-(1,3,6-trimethyl-2,4-dioxo-5-pyrimidinyl)-L-phenylalanine 1-(acetoxy)ethyl ester] are 84 to 88 °C and less than 10 µM.
For the compound `Cc1c(-c2ccc(C[C@H](NC(=O)[C@@H]3CCCN3)C(=O)O)cc2)c(=O)n(C)c(=O)n1C` [Example 35, L-prolyl-4-(1,3,6-trimethyl-2,4-dioxo-5-pyrimidinyl)-L-phenylalanine], the IC50 on VLA-4 (α4β1 integrin) [2] is less than 0.1 µM.

These data come from patent US6380387B1, “4-Pyrimidinyl-n-acyl-l phenylalanines” (Hoffmann-La Roche Inc., priority 1999, dated 2002).
